Laboratory results reported in PubChem BioAssay AID2060500 (Molecular Pharmacology Branch, DTP, NCI, 2025).

Test system: 596521-263-R-J1-PDC complex spheroids, viability % of control
Test: Anticancer human tumor 596521-263-R-J1-PDC patient-derived soft tissue sarcoma cell line growth inhibition [GQUAD]
Settings: for IC50: curve of first compound; for viability, T/C: stronger effect = lower value
Outline: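 Viability of tumor cells grown as complex spheroids with endothelial and stromal cells, exposed to drug combinations. Top concentration at or near clinical Cmax (else 10 microM), diluted in half-log increments.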

[1] = second compound 0.0316 µM, first compound 0.0316 µM
[2] = second compound 0.0316 µM, first compound 0.1 µM
[3] = second compound 0.0316 µM, first compound 0.316 µM
[4] = second compound 0.0316 µM, first compound 1 µM
[5] = second compound 0.0316 µM, first compound 3.16 µM
[6] = second compound 0.0316 µM, first compound 10 µM
[7] = second compound 0.1 µM, first compound 0.0316 µM
[8] = second compound 0.1 µM, first compound 0.1 µM
[9] = second compound 0.1 µM, first compound 0.316 µM
[10] = second compound 0.1 µM, first compound 1 µM
[11] = second compound 0.1 µM, first compound 3.16 µM
[12] = second compound 0.1 µM, first compound 10 µM
[13] = second compound 0.316 µM, first compound 0.0316 µM
[14] = second compound 0.316 µM, first compound 0.1 µM
[15] = second compound 0.316 µM, first compound 0.316 µM
[16] = second compound 0.316 µM, first compound 1 µM
[17] = second compound 0.316 µM, first compound 3.16 µM
[18] = second compound 0.316 µM, first compound 10 µM
[19] = second compound 1 µM, first compound 0.0316 µM
[20] = second compound 1 µM, first compound 0.1 µM
[21] = second compound 1 µM, first compound 0.316 µM
[22] = second compound 1 µM, first compound 1 µM
[23] = second compound 1 µM, first compound 3.16 µM
[24] = second compound 1 µM, first compound 10 µM
[25] = second compound 3.16 µM, first compound 0.0316 µM
[26] = second compound 3.16 µM, first compound 0.1 µM
[27] = second compound 3.16 µM, first compound 0.316 µM
[28] = second compound 3.16 µM, first compound 1 µM
[29] = second compound 3.16 µM, first compound 3.16 µM
[30] = second compound 3.16 µM, first compound 10 µM
[31] = second compound 10 µM, first compound 0.0316 µM
[32] = second compound 10 µM, first compound 0.1 µM
[33] = second compound 10 µM, first compound 0.316 µM
[34] = second compound 10 µM, first compound 1 µM
[35] = second compound 10 µM, first compound 3.16 µM
[36] = second compound 10 µM, first compound 10 µM
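Further: spheroids exposed to drugs for 7 days before viability reading.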
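Wherever viability, T/C is given: 100% = DMSO vehicle control viability.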

`C=CCn1c(=O)c2cnc(Nc3ccc(N4CCN(C)CC4)cc3)nc2n1-c1cccc(C(C)(C)O)n1` + Cc1[nH]c2ccc(F)cc2c1-c1nc2c3cccnc3c3ncccc3c2[nH]1 was tested, and the IC50 (second compound 0.0316 µM) was 5.81 µM, the IC50 (second compound 0.1 µM) was 5.31 µM and the IC50 (second compound 0.316 µM) was 5.46 µM. It also gave an IC50 (second compound 1 µM) of 5.29 µM, an IC50 (second compound 3.16 µM) of 5.68 µM and an IC50 (second compound 10 µM) of 5.57 µM. It also gave a viability, T/C [1] of 99.1%, a viability, T/C [2] of 97.8% and a viability, T/C [3] of 92.5%. For the same compound, the viability, T/C [4] was 88%, the viability, T/C [5] was 69.9% and the viability, T/C [6] was 32%. For the same compound, the viability, T/C [7] was 120%, the viability, T/C [8] was 91.6% and the viability, T/C [9] was 92.5%. The viability, T/C [10] was 94.7%, the viability, T/C [11] was 64.8% and the viability, T/C [12] was 30%. For the same compound, the viability, T/C [13] was 110%, the viability, T/C [14] was 88.3% and the viability, T/C [15] was 81.7%. The viability, T/C [16] was 84.5%, the viability, T/C [17] was 70.3% and the viability, T/C [18] was 31.2%. It also gave a viability, T/C [19] of 102%, a viability, T/C [20] of 88.8% and a viability, T/C [21] of 86.7%. It also gave a viability, T/C [22] of 90.2%, a viability, T/C [23] of 64.3% and a viability, T/C [24] of 31.3%. It also gave a viability, T/C [25] of 83.7%, a viability, T/C [26] of 85% and a viability, T/C [27] of 92.1%. For the same compound, the viability, T/C [28] was 86.2%, the viability, T/C [29] was 66.8% and the viability, T/C [30] was 33.7%. It also gave a viability, T/C [31] of 90.3%, a viability, T/C [32] of 82.2% and a viability, T/C [33] of 84.5%. For the same compound, the viability, T/C [34] was 79.2%, the viability, T/C [35] was 69.4% and the viability, T/C [36] was 31.2%.

`COc1ncnc(C2CC2)c1-c1ncc2cnn(Cc3ccc(-c4nc(C(F)(F)F)cn4C(C)C)cc3)c2n1` + Cc1[nH]c2ccc(F)cc2c1-c1nc2c3cccnc3c3ncccc3c2[nH]1 was tested, and the IC50 (second compound 0.0316 µM) was 1.46 µM, the IC50 (second compound 0.1 µM) was 1.5 µM and the IC50 (second compound 0.316 µM) was 1.19 µM. It also gave an IC50 (second compound 1 µM) of 1.19 µM, an IC50 (second compound 3.16 µM) of 1.2 µM and an IC50 (second compound 10 µM) of 0.991 µM. For the same compound, the viability, T/C [1] was 100%, the viability, T/C [2] was 88.8% and the viability, T/C [3] was 79.6%. It also gave a viability, T/C [4] of 56.9%, a viability, T/C [5] of 33.5% and a viability, T/C [6] of 2.52%. The viability, T/C [7] was 98.8%, the viability, T/C [8] was 90.4% and the viability, T/C [9] was 75.6%. It also gave a viability, T/C [10] of 67%, a viability, T/C [11] of 27.1% and a viability, T/C [12] of 2.12%. It also gave a viability, T/C [13] of 85.8%, a viability, T/C [14] of 95.4% and a viability, T/C [15] of 80.3%. The viability, T/C [16] was 49.7%, the viability, T/C [17] was 27.8% and the viability, T/C [18] was 1.85%. It also gave a viability, T/C [19] of 87.2%, a viability, T/C [20] of 78.8% and a viability, T/C [21] of 75%. It also gave a viability, T/C [22] of 49.9%, a viability, T/C [23] of 31.1% and a viability, T/C [24] of 1.7%. The viability, T/C [25] was 84.9%, the viability, T/C [26] was 95.3% and the viability, T/C [27] was 68.5%. The viability, T/C [28] was 53.9%, the viability, T/C [29] was 29.4% and the viability, T/C [30] was 2.26%. For the same compound, the viability, T/C [31] was 95.4%, the viability, T/C [32] was 76.7% and the viability, T/C [33] was 71.3%. For the same compound, the viability, T/C [34] was 54.6%, the viability, T/C [35] was 20.6% and the viability, T/C [36] was 1.93%.
